Where “and” joins values, the source holds several entries; their conditions need not be identical. Equal values may be shown once.
What was measured:
H526 cells = assay: Clonogenic (colony formation) assay, H526; format: cell-based, human; conditions: H526, 250 nM, 5 days
Description: Fig. 2 NHWD-870 inhibited BRD4 phosphorylation and c-MYC expression, and suppressed cell growth. a Representative western blot analysis of p-BRD4 (s484/488), BRD4, c-MYC, and GAPDH after treatment of MDA-MB231, SUM159, A2780 ES-2, and H526 cells with JQ-1 or NHWD-870 at the indicated concentrations for 24 h. GAPDH served as the loading control. Selected from three independent experiments. b MTT assays of H526, A2780, ES-2, and MDA-MB231 cells treated with JQ-1 or NHWD-870 at the indicated concentrations for 5 days. Data are presented as mean ± SEM from three independent experiments. c, d Clonogenic assays of H526, A2780, ES-2 and MDA-MB231 cells treated with 250 nM JQ-1 or NHWD-870 for 5 days. Shown are representative images (c) and quantification of colonies (d). […] Shown are representative images (e) and quantification of relative colony sizes (f). Scale bar, 50 μm. Data are presented as mean ± SEM from five independent experiments. p values were calculated using two-tailed, unpaired t tests in this figure. **p < 0.01; ***p < 0.001. Source data are provided as a Source Data file. […]
5. Colony formation assay. Cells were seeded in 6-well plates at 3,000 cells/well […]
every week. […] Colony numbers were calculated with imageJ version

A2780 tumors = assay: Orthotopic OC model with CSF1 overexpressing A2780 cells, NHWD-870 treatment; format: in vivo, mouse; parameters: Tumor weight (Fig.6k) / Ascitic fluid (Fig.6l): unit not given here
Description: Fig. 6 CSF1/CSF1R signaling is critical for the tumor inhibitory effects of NHWD-870 and CSF1 induced ovarian cancer growth depends on macrophages. a Number of TAMs after treatment with the indicated concentration of CSF1 for 48 h. Data are presented as mean ± SEM from three independent experiments. b–d Schematics of the experiments (b). A2780 cells (pre-treated with DMSO or 100 nM NHWD-870 for 48 h) were seeded into the top chamber (transwell size: 0.4 μm), and TAMs (Mac, 40,000 cells per 24-well) in medium with PBS or 10 ng/ml CSF1 (c), or 50 ng/ml IgG or anti-CSF1R antibodies (d), were seeded into the bottom chamber. Shown are quantification of TAMs (c, d). Data are presented as mean ± SEM from three independent experiments. e Representative western blot analysis of A2780 cells stably transfected with CSF1 or empty vector (EV). Selected from three independent experiments. f Schematics of the animal experiments using an orthotopic mouse OC model, established by intraperitoneally injecting 1 × 10^6 (g–j) or 2 × 10^6 (k–m) human A2780 cells overexpressing CSF1 or control into female recipient nude mice. Mice were then treated with/without liposomal clodronate (LC) for 45 days (g–j) or treated with/without NHWD-870 (PO, QD, 3 mg/kg) for 37 days (k–m). g Increased mouse body weight was measured at the indicated time points (day 0-45 after LC treatment). h–j Net tumor weight (h), ascitic fluid volumes (i) tumor implantations in peritoneum, omentum and pevic cavity (j) were measured at day 45 from LC treatment. k–m Net tumor weight (k), ascitic fluid volumes (l) tumor implantations in peritoneum, omentum and pevic cavity (m) were measured at day 37 after NHWD-870 treatment. For g–m, data are presented as mean ± SEM from five different mice. p values were calculated using two-tailed, unpaired t tests in this figure. n.s, not significant; *p < 0.05; **p < 0.01; and ***p < 0.001. Source data are provided as a Source Data file.
4–6 weeks old female BALB/c nude mice were used for most experiments, with the exception of 6–8 weeks old female C57BL/6 mice were used for B16F10 experiments, and 6–8 weeks old male BALB/c nude mice and SD rats were used for pharmacokinetic experiments. All animals were purchased from Shanghai SIPPR-Bk Lab Animal Co., Ltd. All animals were housed under a regimen of 12 h light/12 h dark cycles and specific pathogen-free conditions. 5×10^6 NCI-H526, ES-2, MDA-MB231, A2780, A375, B16F10, and TMD-8 cells (0.1 ml) were injected subcutaneously into female nude mice. The melanoma patient-derived xenograft model was derived from a human melanoma sample (BRAF, NARS and NF1 wild type, and p53 mutant) removed from a patient in Xiangya Hospital. Surgically removed tumor fragments were implanted subcutaneously into female NSG mice. When the tumors grew to ~1000 mm^3, they were harvested and cryopreserved or immediately re-implanted for expansion or experiments. Mouse body weight and tumor sizes were measured every 3 days. Once the tumors grew to 150–200 mm^3, mice were treated with the compounds as described in the Figures. 1 × 10^6 A2780 cells (1 ml) were injected into the abdominal cavity of nude mice. Ascitic volume and tumor weight were measured by an electronic balance. All the procedures were evaluated and approved by the Institutional Animal Care and Use Committee of Central South University and Yale University.

[1] = CSF-1 overexpressing A2780 cells

Cc1nnn(C)c1-c1cnc2c3c4cnn(C)c4ccc3n([C@H](c3ccccc3)C3CCOCC3)c2c1 [NHWD-870]
Clone Number (clonogenic assay) (H526 cells): 75 and 84 and 92 and 65 and 76 | Ascitic fluid (Fig.6l) (A2780 tumors; [1]): 2.5 and 3.8 and 4.1 and 3.5 and 2.1 | Tumor nodules, Omentum (Fig.6m) (A2780 tumors; [1]): 8 and 13 and 10 and 16 and 12 | Tumor nodules, Pelvic (Fig.6m) (A2780 tumors; [1]): 45 and 54 and 36 and 64 and 51 | Tumor weight (Fig.6k) (A2780 tumors; [1]): 375 and 345 and 367 and 276 and 305 | tumor inhibitory effects on CSF1 overexpressing A2780 tumors (A2780 tumors; PO, QD, 3 mg/kg, 37 days): strongly mitigated the tumor inhibitory effects
